# “Also recorded” adds a separate entry of the source.
# Key:
# [1] = test system: cell viability (endogenous cellular GAPDH); experiment: Cell viability, AlphaScreen SureFire GAPDH assay; settings: cytotoxicity
# [2] = test system: HIV/HA (H5) pseudotype virus; experiment: organism not typed; format: cell-based, influenza A virus H5N1; settings: for inhibition at 25 µM: A549, read-out: % inhibition @ 25 μM influenza
# HIV/HA pseudotype virus = format: cell-based, influenza A virus H5N1
# [3] = test system: Influenza A virus [A/WS/33]; experiment: Plaque assay of influenza A virus A/WS/33 on MDCK cells; format: cell-based, influenza A virus A/WS/33 (H1N1); settings: 25-200 nM (FIG. 7)
# [4] = test system: HIV/VSV-G pseudotype virus; experiment: organism not typed; format: cell-based, vesicular stomatitis virus; settings: for inhibition at 25 µM: read-out: % inhibition @ 25 μM VSV
# HIV/MLV pseudotype virus = format: cell-based
# Influenza H1N1 (PR8) = format: cell-based, influenza virus H1N1 (PR8)
# [5] = test system: HIV/HA (H7) pseudotype virus; format: cell-based, influenza virus (H7)
# Pseudotype ebola virus = experiment: microbe, parasite or virus in culture; format: cell-based; settings: Zaire ebolavirus, read-out: % inhibition @ 25 μM EBOV
Structure (SMILES),CC50 [1],IC50 [2],inhibition at 25 µM [2],inhibition at 25 µM [4],inhibition at 25 µM (Pseudotype ebola virus),further results
Cc1cccc(C)c1NC(=O)CN(c1ccccc1Cl)S(=O)(=O)c1ccccc1 [Compound 20],> 100 µM,> 100 µM,–,–,–,–
CO/C1=C\C(C)=C\[C@@H](C)[C@@H](O)[C@@H](C)C/C(C)=C/C=C/[C@H](OC)[C@@H]([C@@H](C)[C@@H](O)[C@H](C)[C@@]2(O)C[C@@H](O)[C@H](C)[C@@H](C(C)C)O2)OC1=O [bafilomycin A],–,–,–,–,–,inhibition of infectivity of HIV/HA pseudotype virus (HIV/HA pseudotype virus): efficiently inhibited the infectivity; also recorded: prevented HIV/HA infection; inhibition of infectivity of influenza virus infection [3]: efficiently inhibited the infectivity
O=C(CN(c1ccc(Cl)cc1Cl)S(=O)(=O)c1ccccc1)Nc1ccccc1F [Compound 2],–,–,–,–,–,IC90 [2]: 3.9 µM; IC90 [4]: > 100 µM; IC90 (HIV/MLV pseudotype virus): 99 µM; IC50 (Influenza H1N1 (PR8)): 5.2 µM; IC90 [5]: > 100 µM
COc1ccc(N(CC(=O)Nc2ccccc2-c2ccccc2)S(=O)(=O)c2ccc(F)cc2)cc1 [Compound 12838_B07],–,–,46%,77%,99%,–
COc1ccc(Cl)cc1N(CC(=O)Nc1ccc(F)cc1F)S(=O)(=O)c1ccc(C)cc1 [Compound 12096_A08],–,–,88%,42%,38%,–
COc1cccc(N(CC(=O)Nc2ccc(CSc3ccccc3)cc2)S(C)(=O)=O)c1 [Compound 11997_F05],–,–,100%,51%,41%,–
"Cl.N [NH4Cl, ammonium chloride]",–,–,–,–,–,reduction of HIV/HA virus infection (HIV/HA pseudotype virus): significantly reduced the virus infection
CCc1ccc(N(CC(=O)Nc2ccc(Oc3ccccc3)cc2)S(C)(=O)=O)cc1 [Compound 12066_B08],–,–,98%,24%,31%,–
COc1ccc(NC(=O)CN(c2cccc(Cl)c2)S(=O)(=O)c2ccccc2)c(OC)c1 [Compound 18],> 100 µM,> 100 µM,–,–,–,–
COc1ccc(NC(=O)CN(c2ccc(Cl)cc2)S(=O)(=O)c2ccc(C)cc2)cc1 [Compound 16],> 100 µM,> 100 µM,–,–,–,–
COc1ccc(N(CC(=O)Nc2ccccc2SC)S(=O)(=O)c2ccc(F)cc2)cc1 [Compound 12794_H03],–,–,47%,77%,100%,–
COc1ccccc1NC(=O)CN(c1ccc(Cl)cc1C)S(C)(=O)=O [Compound 12078_B05],–,–,96%,36%,42%,–
O=C(CN(c1ccc(Cl)c(Cl)c1)S(=O)(=O)c1ccccc1)Nc1ccccc1 [Compound 9],42 µM,20 µM,–,–,–,–
COc1cccc(N(CC(=O)Nc2cc(Cl)cc(Cl)c2)S(=O)(=O)c2ccccc2)c1 [Compound 7],31.5 µM,18.5 µM,–,–,–,–
CCOc1ccccc1NC(=O)CN(c1cc(Cl)ccc1Cl)S(C)(=O)=O [Compound 12110_D02],–,–,90%,2%,0%,–
Cc1ccc(S(=O)(=O)N(CC(=O)Nc2ccccc2C(F)(F)F)c2ccc(F)cc2)cc1 [Compound 12440_F06],–,–,46%,45%,93%,–
Cc1cccc(NC(=O)CN(c2cccc(Cl)c2Cl)S(C)(=O)=O)c1 [Compound 11998_D06],–,–,88%,0%,0%,–
COc1ccc(Cl)cc1NC(=O)CN(c1cccc(Cl)c1Cl)S(C)(=O)=O [Compound 12021_B02],–,–,87%,70%,0%,–
COc1ccc(S(=O)(=O)N(CC(=O)Nc2cccc3ccccc23)c2ccc(Cl)cc2)cc1 [Compound 12308_B02],–,–,46%,23%,96%,–
O=C(CN(c1ccccc1F)S(=O)(=O)c1ccccc1)Nc1cccc(C(F)(F)F)c1 [Compound 30656_D10],–,–,87%,59%,31%,–
COc1ccc(N(CC(=O)Nc2c(OC)cccc2OC)S(=O)(=O)c2ccccc2)cc1 [Compound 13],> 100 µM,> 100 µM,–,–,–,–
COc1ccc(NC(=O)CN(c2ccccc2Cl)S(=O)(=O)c2ccc(C)cc2)c(OC)c1 [Compound 23],> 100 µM,> 100 µM,–,–,–,–

# Reference: patent US9212134B2, “Inhibitors of viral entry into mammalian cells” (priority 2010, dated 2015)
